Legend:
[1] = Binary mixture study: stability of rsCT with individual excipients stored at 40° C. (recovery and purity); format: physicochemical; details: for rsCT stability in binary mixture: 40° C.
Experimental: Binary mixtures were prepared by combining about 18 mg of rsCT with about 300 mg of each of the excipients, individually. Each binary mixture was evaluated in the presence or absence of 10% (w/w) water. Control samples included rsCT only. The mixtures were stored at 40° C., were pulled in duplicate after 7 days and 32 days, and were evaluated for recovery (assay activity relative to that of untreated and dried rsCT) and purity.

[2] = more potent than human calcitonin; cited from earlier work
[3] = Water content of rsCT and excipient powders by Karl Fischer Coulometric Titration Method 1c; format: physicochemical; details: for Dried Water content: powder after drying in a lyophilizer; for Untreated Water Content: powder in its untreated state
Experimental: The stability of rsCT in the binary presence of the tablet core and subcoat excipients, as well as the effect of intrinsic and extrinsic moisture on the stability of those mixtures, was thoroughly examined. Each of the components including rsCT was evaluated in its untreated state and after drying in a lyophilizer (dried). The water content of each powder was determined by Karl Fischer Coulometric Titration Method 1c prior to preparation of the binary mixtures and is presented in Table 1, below.

Row | Compound | Average Purity (Area %) ([1]; 10% (v/w) Water Added, T = 7 days at 40° C.) | Average Purity (Area %) ([1]; 10% (v/w) Water Added, T = 32 days at 40° C.) | Average Purity (Area %) ([1]; Untreated Powders, T = 7 days at 40° C.) | Average Purity (Area %) ([1]; Untreated Powders, T = 32 days at 40° C.) | rsCT stability in binary mixture ([1]; in the presence of water and Citric Acid DC F20) | rsCT stability in binary mixture ([1]; in the presence of water and Kollicoat IR) | rsCT stability in binary mixture ([1]; in the presence of water and Prosolv HD90) | Potency relative to human calcitonin [2] | Dried Water content [3] | Untreated Water Content [3]
1 | CC(C)C[C@H](NC(=O)[C@H](CCCCN)NC(=O)CNC(=O)[C@H](CC(C)C)NC(=O)[C@@H](NC(=O)[C@@H]1CSSC[C@H](N)C(=O)N[C@@H](CO)C(=O)N[C@@H](CC(N)=O)C(=O)N[C@@H](CC(C)C)C(=O)N[C@@H](CO)C(=O)N[C@@H]([C@@H](C)O)C(=O)N1)C(C)C)C(=O)N[C@@H](CO)C(=O)N[C@@H](CCC(N)=O)C(=O)N[C@@H](CCC(=O)O)C(=O)N[C@@H](CC(C)C)C(=O)N[C@@H](Cc1c[nH]cn1)C(=O)N[C@@H](CCCCN)C(=O)N[C@@H](CC(C)C)C(=O)N[C@@H](CCC(N)=O)C(=O)N[C@H](C(=O)N[C@@H](Cc1ccc(O)cc1)C(=O)N1CCC[C@H]1C(=O)N[C@@H](CCCNC(=N)N)C(=O)N[C@H](C(=O)N[C@@H](CC(N)=O)C(=O)N[C@H](C(=O)NCC(=O)N[C@@H](CO)C(=O)NCC(=O)N[C@H](C(=O)N1CCC[C@H]1C(N)=O)[C@@H](C)O)[C@@H](C)O)[C@@H](C)O)[C@@H](C)O [rsCT, salmon calcitonin] | 98.2% Area % | 95.1% Area % | 98.9% Area % | 96.0% Area % | rapidly degraded with concomitant loss of recovery and purity | loss of rsCT activity and loss in purity | rapid loss of rsCT activity and non-concomitant loss in purity | 30-50 times | 0.90% | 8.91%
2 | Magnesium Stearate | – | – | – | – | – | – | – | – | 3.51% | 5.00%

Reference: patent US11998640B2, “Room temperature stable oral calcitonin formulation” (PARK THERAPEUTICS, INC., priority 2016, dated 2024)
